Reference: ChEMBL document CHEMBL5390293, “Additional Sarasinosides from the Marine Sponge Melophlus sarasinorum Collected from the Bismarck Sea” (J Nat Prod, 2023)
Activity calls are given as the source filed them. The calls are words filed in the database; no cut-off is given here.

Assays:
A549 = experiment: Cytotoxicity against human A549 cells assessed as cell viability at 20 ug/ml by MTT assay; type: functional, cell-based; conditions: dose 20.0 µg/ml
A2058 = experiment: Cytotoxicity against human A2058 cells assessed as cell viability at 20 ug/ml by MTT assay; type: functional, cell-based; conditions: dose 20.0 µg/ml
HepG2 [1] = experiment: Cytotoxicity against human HepG2 cells assessed as cell viability at 20 ug/ml by MTT assay; type: functional, cell-based; conditions: dose 20.0 µg/ml
MCF7 = experiment: Cytotoxicity against human MCF7 cells assessed as cell viability at 20 ug/ml by MTT assay; type: functional, cell-based; conditions: dose 20.0 µg/ml
MIA PaCa-2 = experiment: Cytotoxicity against human MIA PaCa-2 cells assessed as cell viability at 20 ug/ml by MTT assay; type: functional, cell-based; conditions: dose 20.0 µg/ml
Staphylococcus aureus = experiment: Antimicrobial activity against methicillin sensitive Staphylococcus aureus assessed as bacterial growth inhibition; type: functional, organism-based
Escherichia coli = experiment: Antimicrobial activity against Escherichia coli assessed as bacterial growth inhibition; type: functional, organism-based
Acinetobacter baumannii = experiment: Antimicrobial activity against Acinetobacter baumannii assessed as bacterial growth inhibition; type: functional, organism-based
Nakaseomyces glabratus = experiment: Antimicrobial activity against Candida glabrata assessed as fungal growth inhibition; type: functional, organism-based
Candida albicans = experiment: Antimicrobial activity against Candida albicans assessed as fungal growth inhibition; type: functional, organism-based
Pichia kudriavzevii = experiment: Antimicrobial activity against Pichia kudriavzevii assessed as fungal growth inhibition; type: functional, organism-based
Candida parapsilosis = experiment: Antimicrobial activity against Candida parapsilosis assessed as fungal growth inhibition; type: functional, organism-based
Candida tropicalis = experiment: Antimicrobial activity against Candida tropicalis assessed as fungal growth inhibition; type: functional, organism-based
Aspergillus fumigatus = experiment: Antimicrobial activity against Aspergillus fumigatus assessed as fungal growth inhibition; type: functional, organism-based
HepG2 [2] = experiment: Cytotoxicity against human HepG2 cells incubated for 48 hrs by absorbance based assay; type: functional, cell-based; conditions: HepG2, 48 h
N2a = experiment: Cytotoxicity against mouse Neuro2a cells incubated for 24 hrs by absorbance based assay; type: functional, cell-based

SMILES: CC(=O)N[C@H]1[C@H](O[C@@H]2CO[C@@H](O[C@H]3CC[C@]4(C)C5=C(CC[C@H]4C3(C)C)[C@@H]3CC[C@H]([C@H](C)CC(=O)C=C(C)C)[C@@]3(C)CC5)[C@H](O[C@@H]3O[C@H](CO[C@@H]4OC[C@@H](O)[C@H](O)[C@H]4O)[C@@H](O)[C@H](O)[C@H]3NC(C)=O)[C@H]2O)O[C@H](CO)[C@H](O)[C@@H]1O
- Activity (A549): inactive
- Activity (A2058): inactive
- Activity (HepG2 [1]): inactive
- Activity (MCF7): inactive
- inhibition (MIA PaCa-2): inactive
- inhibition (Staphylococcus aureus): inactive
- inhibition (Escherichia coli): inactive
- inhibition (Acinetobacter baumannii): inactive
- inhibition (Nakaseomyces glabratus): inactive
- inhibition (Candida albicans): inactive
- inhibition (Pichia kudriavzevii): inactive
- inhibition (Candida parapsilosis): inactive
- inhibition (Candida tropicalis): inactive
- inhibition (Aspergillus fumigatus): inactive

SMILES: CO[C@H]1C[C@H]([C@H](C)CC(=O)C=C(C)C)[C@@]2(C)CC[C@@]3(O)C(=C12)CC[C@H]1C(C)(C)[C@@H](O[C@@H]2OC[C@@H](O[C@@H]4O[C@H](CO)[C@H](O)[C@H](O)[C@H]4NC(C)=O)[C@H](O)[C@H]2O[C@@H]2O[C@H](CO[C@@H]4OC[C@@H](O)[C@H](O)[C@H]4O)[C@@H](O)[C@H](O)[C@H]2NC(C)=O)CC[C@@]13C
- Activity (A549): inactive
- Activity (A2058): inactive
- Activity (HepG2 [1]): inactive
- Activity (MCF7): inactive
- inhibition (MIA PaCa-2): inactive
- inhibition (Staphylococcus aureus): inactive
- inhibition (Escherichia coli): inactive
- inhibition (Acinetobacter baumannii): inactive
- inhibition (Nakaseomyces glabratus): inactive
- inhibition (Candida albicans): inactive
- inhibition (Pichia kudriavzevii): inactive
- inhibition (Candida parapsilosis): inactive
- inhibition (Candida tropicalis): inactive
- inhibition (Aspergillus fumigatus): inactive

SMILES: CC(=O)N[C@H]1[C@H](O[C@@H]2CO[C@@H](O[C@H]3CC[C@]4(C)C5=CC[C@@]6(C)C(=C(CC[C@H]4C3(C)C)O5)CC[C@@H]6[C@H](C)CC(=O)C=C(C)C)[C@H](O[C@@H]3O[C@H](CO[C@@H]4OC[C@@H](O)[C@H](O)[C@H]4O[C@@H]4O[C@H](CO)[C@@H](O)[C@H](O)[C@H]4O)[C@@H](O)[C@H](O)[C@H]3NC(C)=O)[C@H]2O)O[C@H](CO)[C@H](O)[C@@H]1O
- IC50 (HepG2 [2]): 5.9 µM

SMILES: CO[C@@H]1C[C@H]([C@H](C)CC(=O)C=C(C)C)[C@@]2(C)CC[C@@]3(O)C(=C12)CC[C@H]1C(C)(C)[C@@H](O[C@@H]2OC[C@@H](O[C@@H]4O[C@H](CO)[C@H](O)[C@H](O)[C@H]4NC(C)=O)[C@H](O)[C@H]2O[C@@H]2O[C@H](CO[C@@H]4OC[C@@H](O)[C@H](O)[C@H]4O)[C@@H](O)[C@H](O)[C@H]2NC(C)=O)CC[C@@]13C
- Activity (A549): inactive
- Activity (A2058): inactive
- Activity (HepG2 [1]): inactive
- Activity (MCF7): inactive
- inhibition (MIA PaCa-2): inactive
- inhibition (Staphylococcus aureus): inactive
- inhibition (Escherichia coli): inactive
- inhibition (Acinetobacter baumannii): inactive
- inhibition (Nakaseomyces glabratus): inactive
- inhibition (Candida albicans): inactive
- inhibition (Pichia kudriavzevii): inactive
- inhibition (Candida parapsilosis): inactive
- inhibition (Candida tropicalis): inactive
- inhibition (Aspergillus fumigatus): inactive

SMILES: CC(=O)N[C@H]1[C@H](O[C@@H]2CO[C@@H](O[C@H]3CC[C@]4(C)C5=C(CC[C@H]4C3(C)C)C3CC[C@H]([C@H](C)CC(=O)C=C(C)C)[C@@]3(C)CC5)[C@H](O[C@@H]3O[C@H](CO[C@@H]4OC[C@@H](O)[C@H](O)[C@H]4O[C@@H]4O[C@H](CO)[C@H](O)[C@@H](O)[C@H]4O)[C@@H](O)[C@H](O)[C@H]3NC(C)=O)[C@H]2O)O[C@H](CO)[C@H](O)[C@@H]1O (some centres undefined)
- IC50 (N2a): 5.8 µM
